These results are taken from article PMC5986646.

Data set [1] concerns HCT116/wt cells. The experiment in a line: Cell viability assay (MTT, EZ4U). Format: cell-based, human. Particulars: mean (± SD) of at least three independent experiments in triplicates.
A further data set deals with HCT116/dtxB cells. The experiment in a line: Cell viability assay (MTT, EZ4U). Format: cell-based, human. Conditions: for pIC50: n ≥ 3.
In data set [2] the test system is HCT116/dtxA cells. The experiment in a line: Cell viability assay (MTT, EZ4U). Format: cell-based, human. Conditions: for pIC50: n ≥ 3.
In data set [3] the test system is HCT116/dtxE cells. The experiment in a line: Cell viability assay (MTT, EZ4U). Format: cell-based, human. Particulars: for pIC50: HCT116/dtxE, about one year of selection, MTT, mean (± SD), n ≥ 3; for relative resistance: mean IC50 HCT116/dtxE divided by IC50 HCT116/wt.
In another data set the test system is HeLa cell derivative. Further details: method as in PMID 19517454. Particulars: 18 months selection period of a HeLa cell derivative; cited from earlier work.
For data set [4], the system named is HCT116/wt cells. The experiment in a line: Whole-cell patch clamp, ionophoric activity. Format: cell-based, human. Particulars: parental HCT116/wt, 20 μM dtxA, whole-cell mode, membrane potential -60 mV, RT. The method, then:
(§1) Ionophoric activity of dtxA, dtxB and dtxE was determined by patch clamp experiments, performed as previously described. Briefly, ionic currents were recorded in whole-cell mode at RT. Glass electrodes with a resistance less than 5 MΩ were pulled with a DMZ universal puller and filled with intracellular solution (120 mM CsF, 20 mM CsCl, 5 mM EGTA, 5 mM HEPES; pH 7.4). HCT116/wt or resistant cells were perfused with extracellular solution (140 mM NaCl, 4 mM KCl, 1.8 mM CaCl2, 0.75 mM MgCl2, 5 mM HEPES; pH 7.4) in a 1 mL chamber. After obtaining a whole-cell configuration, cells were allowed to equilibrate for 5 min before recording any currents and then pulsed to -60 mV for 10 sec pulses. Data were filtered at 5 kHz and digitized at 10 kHz by using digidata 1440A. Traces were averaged and subtracted from control recording, in the presence or absence of 20 μM dtxA, dtxB or dtxE, to observe ionophoric activity.

In data set [5] the test system is HCT116/dtxA cells. The experiment in a line: Whole-cell patch clamp, ionophoric activity. Format: cell-based, human. Particulars: resistant HCT116/dtxA, 20 μM dtxA, whole-cell mode, membrane potential -60 mV, RT. The method, then: as §1
Data set [6] has as its system resistant sublines (HCT116/dtxA, HCT116/dtxB, HCT116/dtxE). As to the kind of experiment: JC-1 mitochondrial membrane depolarization. Format: cell-based, human. Conditions: each destruxin in its respective resistant subline, 48 h, JC-1, FACS. The method, then: (§2) Parental and dtx-resistant cells were seeded (1x10^5 cells/well in 6-well plates) and treated on the following day for 48 h with the indicated concentrations of dtxA, dtxB or dtxE. Next, the mitochondrial membrane potential (ΔΨm) was measured. In doing so, cells were detached by trypsinization, centrifuged with 300× g for 5 min at 4°C and stained with the fluorescent dye JC-1 (5,5’,6,6’-tetrachloro-1,1’,3’,3’-tetraethyl-benzimidazolylcarbocyanine iodide) for 10 min at 37°C. FACS analysis was performed according to the manufacturer’s instructions (Mitochondrial Membrane Potential detection Kit; Stratagene, La Jolla, CA, USA). To further compare apoptotic changes in the parental and resistant cells, Annexin V-APC/PI stainings were carried out.

Data set [7] concerns HCT116/wt cells. As to the kind of experiment: JC-1 mitochondrial membrane depolarization. Particulars: parental cells, 48 h, JC-1, FACS. Format: cell-based, human. The method, then: as §2
The subject of data set [8] is HCT116/wt cells. The experiment in a line: Annexin-V/PI staining (apoptosis/necrosis). Format: cell-based, human. Particulars: 48 h, 5 μM dtxA, 2.5 μM dtxB, dtxE around the IC50 value, FACS.
The subject of data set [9] is HCT116/dtxA cells. The experiment in a line: Cell viability, dtxA combined with mevalonate pathway inhibitors, combination index. Format: cell-based, human.
In the next data set the test system is BT20. The experiment in a line: Cell viability, dtxA combined with mevalonate pathway inhibitors. Conditions: BT20, intrinsically low sensitivity, inhibitor with dtxA, 72 h. Format: cell-based, human.
Another data set deals with parental HCT116. Described as above. Format: cell-based, human. Conditions: parental HCT116, inhibitor with dtxA, 72 h.
The next data set concerns MCF7. Described as above. Conditions: MCF7, intrinsically low sensitivity, inhibitor with dtxA, 72 h. Format: cell-based, human.
For data set [10], the system named is HCT116/dtxE cells. Particulars: 10 μM verapamil or 1 μM cyclosporin A with increasing dtxE.
[11] abbreviates: HCT116/dtxB, about one year of selection, 72 h, MTT, mean (± SD).
Setting [12] is: HCT116/dtxA, about one year of selection, 72 h, MTT, mean (± SD).
The mark [13] stands for this setting: mean IC50 HCT116/dtxB divided by IC50 HCT116/wt.
Setting [14] is: mean IC50 HCT116/dtxA divided by IC50 HCT116/wt.
Setting [15] is: HCT116/dtxA, inhibitor 24 h pretreatment, then dtxA 72 h, statins at concentrations above 2.5 μM, Chou-Talalay, CalcuSyn, CI < 1 synergism.

pIC50: −log10 of the molar value. Where a name gives a salt, the structure may show the parent alone. Read-outs that look alike come from different tables or passages of the source. Square brackets hold non-standard residues; d marks the D form. Peptide text beside a SMILES is read from it. dLac(3-vinyl) = C=CC[C@@H](O)C(=O)O; dHica = CC(C)C[C@@H](O)C(=O)O; NMeV = CN[C@H](C(=O)O)C(C)C; NMeA = CN[C@@H](C)C(=O)O; βAla = NCCC(=O)O

On to `O=c1[nH]cc(F)c(=O)[nH]1` [5-FU], for which the pIC50 with HCT116/wt cells [1] (72 h) was 4.28; with HCT116/dtxB cells (setting [11]), 4.41; in the data set with HCT116/dtxA cells [2] (setting [12]), 4.44; in the data set on HCT116/dtxE cells [3] (72 h) it was 4.46.

On to `CC(C)[C@H]1OC(=O)[C@H](Cc2ccccc2)N(C)C(=O)[C@@H](C(C)C)OC(=O)[C@H](Cc2ccccc2)N(C)C(=O)[C@@H](C(C)C)OC(=O)[C@H](Cc2ccccc2)N(C)C1=O` [Beauvericin], for which the resistance obtained entry in the data set on HeLa cell derivative is recorded as “no resistance”.

For the molecule `N.N.[Cl][Pt][Cl]` [Cisplatin], the pIC50 was 5.40 with HCT116/wt cells [1] (72 h), 5.66 in the data set with HCT116/dtxB cells (setting [11]), 5.72 with HCT116/dtxA cells [2] (setting [12]) and 5.36 in the data set on HCT116/dtxE cells [3] (72 h).

In the case of `Nc1ccn([C@@H]2O[C@H](CO)[C@@H](O)C2(F)F)c(=O)n1` [Gemcitabin], the pIC50 with HCT116/wt cells [1] (72 h) is 6.40; in the data set on HCT116/dtxB cells (setting [11]), 6.40; with HCT116/dtxA cells [2] (setting [12]) it was 6.40; in the data set on HCT116/dtxE cells [3] (72 h) it was 6.52.

As to `O=C1[O][Pt]2([NH][C@@H]3CCCC[C@H]3[NH]2)[O]C1=O` [Oxaliplatin], the pIC50 in the data set with HCT116/wt cells [1] (72 h) was 6.10; in the data set with HCT116/dtxB cells (setting [11]) it was 6.00; with HCT116/dtxA cells [2] (setting [12]), 6.30; with HCT116/dtxE cells [3] (72 h), 6.40.

As to `CC[C@@]1(O)C(=O)OCc2c1cc1n(c2=O)Cc2cc3c(CN(C)C)c(O)ccc3nc2-1` [Topotecan], the negative-log IC50 (pIC50) in the data set on HCT116/wt cells [1] (Homo sapiens, HCT-116, 72 h) is 7.56; in the data set on HCT116/dtxB cells (Homo sapiens, HCT-116, HCT116/dtxB, about one year of selection, 72 h, MTT, mean (± SD)), 8.09; with HCT116/dtxA cells [2] (Homo sapiens, HCT-116, HCT116/dtxA, about one year of selection, 72 h, MTT, mean (± SD)), 7.59; with HCT116/dtxE cells [3] (Homo sapiens, HCT-116, 72 h), 7.60.

As to `NC(=S)N/N=C/c1ncccc1N` [Triapin], the pIC50 in the data set with HCT116/wt cells [1] (72 h) is 6.10; in the data set on HCT116/dtxB cells (setting [11]), 6.10; with HCT116/dtxA cells [2] (setting [12]), 6.22; in the data set on HCT116/dtxE cells [3] (72 h), 6.10.

For `C=CC[C@H]1OC(=O)CCNC(=O)[C@H](C)N(C)C(=O)[C@H](C(C)C)N(C)C(=O)[C@H]([C@@H](C)CC)NC(=O)[C@@H]2CCCN2C1=O` [dtxA, destruxin A] (cyclo([dLac(3-vinyl)]PI[NMeV][NMeA][βAla])), the “mean total current (pore forming ability)” value in the data set on HCT116/wt cells [4] is -0.7 pA/ms; with HCT116/dtxA cells [5], -0.2 pA/ms. Further, the relative resistance in the data set with HCT116/dtxB cells (setting [13]) is on record as 21.8 -fold; in the data set on HCT116/dtxA cells [2] (HCT116/dtxA vs HCT116/wt, month 6 after selection start) it was 3.5 -fold; in the data set on HCT116/dtxA cells [2] (HCT116/dtxA vs HCT116/wt, month 8 after selection start), > 20 -fold; in the data set with HCT116/dtxA cells [2] (setting [14]) it was >28.6 -fold; with HCT116/dtxE cells [3], 0.3 -fold. Further, the mitochondrial membrane depolarization entry in data set [6] is on record as “no significant increase”; in the data set with HCT116/wt cells [7] it was “only observed in parental cells”. The pIC50 is under 4.00 in the data set with HCT116/dtxA cells [2] (HCT116/dtxA (unsel.), removed from drug selection for one month, 72 h, mean) and under 4.00 with HCT116/dtxA cells [2] (setting [12]). Further, the “percentages of early and/or late apoptotic cells” value in the data set on HCT116/wt cells [8] is “markedly and significantly increased”.

For `CC[C@H](C)[C@@H]1NC(=O)[C@@H]2CCCN2C(=O)[C@@H](CC(C)C)OC(=O)CCNC(=O)[C@H](C)N(C)C(=O)[C@H](C(C)C)N(C)C1=O` [dtxB, destruxin B] (cyclo([dHica]PI[NMeV][NMeA][βAla])), the pIC50 in the data set with HCT116/dtxB cells (HCT116/dtxB (unsel.), removed from drug selection for one month, 72 h, mean) is under 4.00; in the data set on HCT116/dtxB cells (setting [11]) it was under 4.00. Moreover, the relative resistance with HCT116/dtxB cells (HCT116/dtxB vs HCT116/wt, month 4 after selection start) is recorded as 4.4 -fold; in the data set with HCT116/dtxB cells (HCT116/dtxB vs HCT116/wt, month 6 after selection start) it was 4.2 -fold; with HCT116/dtxB cells (HCT116/dtxB vs HCT116/wt, month 8 after selection start) it was > 25 -fold; in the data set with HCT116/dtxB cells (HCT116/dtxB vs HCT116/wt, month 12 after selection start), > 40 -fold; with HCT116/dtxB cells (setting [13]), >40 -fold; in the data set with HCT116/dtxA cells [2] (setting [14]) it was 18.2 -fold. Further, the relative resistance in the data set on HCT116/dtxE cells [3] is on record as 0.3 -fold. Besides, the mitochondrial membrane depolarization result is reported as “no significant increase” in [6] and “only observed in parental cells” with HCT116/wt cells [7]. Further, the “percentages of early and/or late apoptotic cells” value with HCT116/wt cells [8] is “markedly and significantly increased”.

Regarding `CC(C)n1c(/C=C/C(O)CC(O)CC(=O)O)c(-c2ccc(F)cc2)c2ccccc21` (stereo not drawn) [fluvastatin, fluvastatin sodium salt hydrate], the “combination index (CI) in combination with dtxA” value (“combination index (CI)” below) in the data set with HCT116/dtxA cells [9] (setting [15]) was “smaller than 1”. Besides, the “effect on cytotoxic activity of dtxA” value with BT20, in the data set with parental HCT116 and with MCF7 was “augmented” in each case.

`CC[C@H](C)C(=O)O[C@H]1C[C@@H](C)C=C2C=C[C@H](C)[C@H](CC[C@@H]3C[C@@H](O)CC(=O)O3)[C@H]21` [lovastatin, lovastatin (Mevinolin)]: the “combination index (CI)” value in the data set with HCT116/dtxA cells [9] (setting [15]) is “smaller than 1”. Further, in the data set on parental HCT116, the “effect on cytotoxic activity of dtxA” value is given as “augmented”.

Consider `COc1ccc(CCN(C)CCCC(C#N)(c2ccc(OC)c(OC)c2)C(C)C)cc1OC` (stereo not drawn) [verapamil], for which the “sensitivity of HCT116/dtxE cells towards dtxE on co-incubation” value with HCT116/dtxE cells [10] is “partly restored”.

Consider `CC[C@]1(O)C[C@H]2CN(CCc3c([nH]c4ccccc34)[C@@](C(=O)OC)(c3cc4c(cc3OC)N(C=O)[C@H]3[C@@](O)(C(=O)OC)[C@H](OC(C)=O)[C@]5(CC)C=CCN6CC[C@]43[C@@H]65)C2)C1` [vincristine], for which the “cytotoxic activity compared to parental cells (reduction)” value with HCT116/dtxB cells (HCT116/dtxB vs HCT116/wt, 72 h) was “very weak”; in the data set with HCT116/dtxA cells [2] (HCT116/dtxA vs HCT116/wt, 72 h), “absent”. Moreover, in the data set with HCT116/dtxE cells [3] (HCT116/dtxE vs HCT116/wt, 72 h), the “cytotoxic activity compared to parental cells” value is “significantly reduced cytotoxic activity”.

Turning to `O=P(O)(O)C(O)(Cn1ccnc1)P(=O)(O)O` [zoledronic acid, zoledronic acid monohydrate], the “combination index (CI)” value in the data set with HCT116/dtxA cells [9] is “smaller than 1”. Moreover, the “effect on cytotoxic activity of dtxA” value in the data set with BT20, with parental HCT116 and in the data set with MCF7 was “augmented” in each case.
